Assay results reported in US10653672B2, “Myogenesis promotor, muscle atrophy inhibitor, medical composition and TAZ activator” (National University Corporation Tokyo Medical and Dental …, priority 2014, dated 2020).

How the values were obtained:
C2C12 cells [1] = assay: Evaluation of myogenesis of C2C12 cells by fusion index; assay type: cell-based, mouse; settings: differentiation condition 72 hours, DMSO as 1, average of three
Description: (1) C2C12 cells were grown to confluence under growth condition, and then in differentiation condition for 72 hours, in a culture medium added with DMSO, IBS008738 (exemplary compound 1) or exemplary compounds 2 to 44, at a concentration of 1 μM, 3 μM or 10 μM, respectively. Thereafter, the degree of myogenesis was evaluated by a fusion index (a value obtained by dividing the number of nuclei detected in multinucleated myosin heavy chain (MHC)-positive cells by the total number of the nuclei). Specifically, exemplary compounds were divided into five groups, and DMSO and IBS008738 were evaluated in each group as controls. The evaluation was conducted three times, and the average value and the standard deviation of the fusion index was relativized with the measured value of DMSO as 1.
C2C12 cells were passaged in a growth medium (DMEM containing 10% FBS) and differentiated in a differentiation medium (DMEM containing 2% horse serum (Invitrogen)).

C2C12 cells [2] = assay: Evaluation of muscle differentiation markers by immunoblotting; assay type: cell-based, mouse; settings: 10 μM
Description: (1) C2C12 cells were cultured for 24 hours under growth condition in a culture medium added with IBS008738 or DMSO at a concentration of 10 μM, and switched to differentiation condition and the cultivation was continued. The expression of markers indicating muscle differentiation was determined with a predetermined antibody, on the C2C12 cells immediately after the completion of cultivation under growth condition (0 h), 24 hours after switching to differentiation condition (24 h), 48 hours after switching to differentiation condition (48 h) and 72 hours after switching to differentiation condition (72 h), respectively. Tubulin was used as a loading control (FIG. 3A).

C2C12 cells [3] = assay: Muscle formation in C2C12 cells with or without TAZ knockdown (anti-MHC immunostaining, immunoblotting); assay type: cell-based, mouse; settings: C2C12 cells with TAZ not knocked down (si Cont); 10 μM; 72 hours
Description: (2) C2C12 cells with TAZ knocked down by a method described in Sci Signal 2:ra59 (si TAZ) and C2C12 cells with TAZ not knocked down (si Cont) were cultured for 72 hours in a culture medium added with IBS008738 or DMSO at a concentration of 10 μM, respectively, and were immunostained with an anti-MHC antibody (the white portion in FIG. 3B, the bar is 100 μm). Further, immunoblotting was performed with an anti-MHC antibody and an anti-TAZ antibody (see FIG. 3C). […] Further, the expression of MHC was lost by the knockdown of TAZ.
Human TAZ and mouse TAZ were knocked down in MCF10A cells and C2C12 cells as described previously (Ikeda M et al., Sci Signal 2:ra59). The double strand (ds) RNAs used are human TAZ (Ambion s24789) and mouse TAZ (Dharmacon siRNA D-041057).

MyoD reporter = assay: Luciferase reporter assay, MyoD reporter; assay type: cell-based; settings: Mus musculus, C2C12, 24 h, C2C12 cells expressing reporter and TAZ WT, differentiation medium 24 hours
Description: (§1) The effect and its degree on the activity of a reporter, derived from a transcription factor that interacts with TAZ in C2C12 cells, were evaluated. Specifically, C2C12 cells expressing luciferase reporters corresponding to MyoD, TEAD, SMAD and Pax3 and C2C12 cells expressing these luciferase reporters and TAZ were cultured in a culture medium added with IBS008738 or DMSO at a concentration of 10 μM, respectively. […] The line and the error bar indicate the average value and the standard error, *p<0.05, **p<0.01, ns refers to not significant.
(§2) Transfection of the luciferase reporters was performed to the C2C12 cells after being plated at 12-well plates (1×10^5 cells/well) and cultured overnight. As the luciferase reporters, pGL3 Myo-184- (MyoD-), 8×GT-IIC-δ51LucII- (TEAD-), 9×CAGA-MLP-(SMAD-), and p(PRS-1/-4)3- (Pax3-) were transfected to the cells alone or with TAZ. These reporter vectors were from Keiji Miyazawa (Yamanashi University), Hiroshi Sasaki (Kumamoto University) and Hiroki Kurihara (The University of Tokyo).
(§3) Immediately after the transfection, DMSO or IBS008738 was added at a concentration of 10 μM, respectively. After growing the cells to confluence, the cells were transferred to a differentiation medium with DMSO or IBS008738, and cultured for 24 hours before the luciferase assay.

Pax3 reporter = assay: Luciferase reporter assay, Pax3 reporter; assay type: cell-based; settings: Mus musculus, C2C12, 24 h, C2C12 cells expressing reporter and TAZ WT, differentiation medium 24 hours
Description: as §1, §2, §3

SMAD reporter = assay: Luciferase reporter assay, SMAD reporter; assay type: cell-based; settings: Mus musculus, C2C12, 24 h, C2C12 cells expressing reporter and TAZ WT, differentiation medium 24 hours
Description: as §1, §2, §3

Cc1ccc(-n2cnc(/N=C/N3CCOCC3)c2C(=O)c2ccccc2)cc1 [exemplary compound 1]
relative fusion index (FI) (C2C12 cells [1]; Group 1, 1 μM): 1.47
relative fusion index (FI) (C2C12 cells [1]; Group 1, 3 μM): 1.89
relative fusion index (FI) (C2C12 cells [1]; Group 1, 10 μM): 2.00
relative fusion index (FI) (C2C12 cells [1]; Group 2, 1 μM): 1.33
relative fusion index (FI) (C2C12 cells [1]; Group 2, 3 μM): 1.80
relative fusion index (FI) (C2C12 cells [1]; Group 2, 10 μM): 2.03
relative fusion index (FI) (C2C12 cells [1]; Group 3, 1 μM): 1.28
relative fusion index (FI) (C2C12 cells [1]; Group 3, 3 μM): 1.67
relative fusion index (FI) (C2C12 cells [1]; Group 3, 10 μM): 1.76
relative fusion index (FI) (C2C12 cells [1]; Group 4, 1 μM): 1.13
relative fusion index (FI) (C2C12 cells [1]; Group 4, 3 μM): 1.53
relative fusion index (FI) (C2C12 cells [1]; Group 4, 10 μM): 1.68
relative fusion index (FI) (C2C12 cells [1]; Group 5, 1 μM): 1.10
relative fusion index (FI) (C2C12 cells [1]; Group 5, 3 μM): 1.18
relative fusion index (FI) (C2C12 cells [1]; Group 5, 10 μM): 1.33
decrease in the expression of Pax7 compared with DMSO (C2C12 cells [2]): faster to decrease
expression of MHC compared with DMSO (C2C12 cells [2]): became significant on days 3 and 4
expression of TAZ (C2C12 cells [2]): became most significant on day 2
expression of myogenin compared with DMSO (C2C12 cells [2]): became stronger after day 2
expression of MyoD compared with DMSO (C2C12 cells [2]; day 1 after the addition): slightly higher
muscle formation (C2C12 cells [3]): promoted muscle formation
fold induction at 10 µM (MyoD reporter): 6.92
fold induction at 10 µM (Pax3 reporter): 0.8
fold induction at 10 µM (SMAD reporter): 2.09
